The values below come from US20190225650A1, “PEPTIDOMIMETIC MACROCYCLES AND USE THEREOF IN REGULATING HIF1ALPHA” (AILERON THERAPEUTICS, INC., priority 2013, published 2019).

Bridge positions count the residues as written; N and C are the ends. Square brackets hold non-standard residues; d marks the D form. Peptide text beside a SMILES is read from it. R8 = C=CCCCCCC[C@@](C)(N)C(=O)O; S5 = C=CCCC[C@](C)(N)C(=O)O; Nle = CCCC[C@H](N)C(=O)O

Experiment [1] relates to HRE-bla ME-180 cells. Kind of experiment: Reporter gene assay (HRE-bla ME-180 HIF reporter, GeneBLAzer). In kind it is cell-based, human. Conditions: for EC50: 24 hour normoxia. The gist of the method:
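A FRET β-lactamase readout of HIF transcription was used. After compound treatment in 0.3% DMSO/media under normoxic conditions, 20 μl of 6× LiveBLAzer-FRET B/G (CCF4-AM) substrate was added. Plates sat 3 hr at room temperature in the dark and were read at 409 Ex/460Em and 409Ex/530Em on a Synergy 2. Inhibition was compared against DMSO vehicle controls, with chetomin as positive control.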
In general terms: Reporter assays use an easily measured gene product as a stand-in for the process of interest.

Experiment [2] relates to HRE-bla ME-180 cells. Kind of experiment: Cell proliferation assay (viability, MTT, 1% FBS). In kind it is cell-based, human. The procedure, abridged: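 ME-180 cells (2×10^4/well) in Opti-MEM with 1% FBS were pretreated 16 h under normoxia (21% O2), vehicle 0.5% DMSO final. Incubation then continued under normoxia or hypoxia (1% O2); viable cells quantified by MTT-type CellTiter 96 assay.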

In experiment [3] the target is T1, flag-tagged HIF1α (AA 786-826) / His6-tagged p300 (AA 323-423) complex (Homo sapiens, UniProt Q09472).
T1 construct: His6-tagged p300 (AA 323-423); made in house; host or cells: E. coli (pETDuet vector)
Briefly: HIF1α p300 displacement assay (TR FRET, +CHAPS). In kind it is binding. The conditions noted are these: read-out: IC50 (nM) (HIF1α_p300 Displacement + CHAPS). The procedure, abridged:
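The co-expressed flag-HIF1α (786-826)/His6-p300 (323-423) complex, purified from E. coli with 0.1 mM ZnSO4, was used at 300 nM final with competitor peptides for 1 h at room temperature. Buffer was 150 mM NaCl, 20 mM HEPES pH 7.4, 7.5 mM CHAPS and 1 mM DTT. Anti-Flag-K (0.5 μM) and anti-His-D2 (4 nM) were then added for 2 h, and IC50s were fitted from the TR-FRET ratio.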
In general terms: Time-resolved FRET reads energy transfer from a long-lived donor to a nearby acceptor.

Regarding `CC[C@H](C)[C@H](NC(=O)[C@H](Cc1ccccc1)NC(C)=O)C(=O)N[C@@H](CC(=O)O)C(=O)N[C@@H](CCC(=O)O)C(=O)N[C@]1(C)CCCCCCC=CCCC[C@@](C)(C(=O)N[C@@H](CCC(=O)O)C(=O)N[C@@H](CCSC)C(=O)N[C@@H](C)C(=O)N[C@@H](CC(C)C)C(=O)N[C@@H](CC(=O)O)C(N)=O)NC(=O)[C@H](C(C)C)NC(=O)[C@H](CC(C)C)NC(=O)[C@H](CO)NC(=O)[C@H](CCSC)NC(=O)[C@H](CC(C)C)NC(=O)[C@H](C(C)C)NC1=O` [SP-176] (Ac-FIDE[R8]VLMSLV[S5]EMALD-NH2; staple 5-12), in the experiment on HRE-bla ME-180 cells [1], the “18 h Avg % max inhibition at top conc (HIF Rptr-24 hrs normoxia) (μM)” value (from here on “18 h Avg % max inhibition at top conc”) is “++++ (≥50: ++++)” and the concentration giving a half-maximal response (EC50) (as a rule, the concentration at which the effect is half-maximal) was over 30 µM. In addition, the “Viability 1% FBS AVG (MTT V3-24 hr Normoxia) (μM)” value (“Viability 1% FBS AVG” for short) with HRE-bla ME-180 cells [2] is “++++ (≥30: ++++)”. Further, the IC50 (usually the concentration at which inhibition is half-maximal) in experiment [3] is over 700 nM.
In the same order, the values of `CCCC[C@H](NC(=O)[C@H](CCC(=O)O)NC(=O)[C@]1(C)CCCC=CCCCCCC[C@@](C)(NC(=O)[C@H](CCC(=O)O)NC(=O)[C@H](CC(=O)O)NC(=O)[C@@H](NC(=O)[C@H](CC(N)=O)NC(=O)[C@@H](NC(=O)[C@]2(C)CCCC=CCCCCCC[C@@](C)(NC(=O)[C@H](CCC(=O)O)NC(=O)CNC(=O)[C@H](CCC(N)=O)NC(=O)[C@H](CC(C)C)NC(=O)[C@H](CC(C)C)NC(C)=O)C(=O)N[C@@H](CC(C)C)C(=O)N[C@@H](CC(C)C)C(=O)N[C@@H](CCCNC(=N)N)C(=O)N[C@@H](C)C(=O)N[C@@H](CC(C)C)C(=O)N[C@@H](CC(=O)O)C(=O)N2)C(C)C)[C@@H](C)CC)C(=O)N[C@@H](C(C)C)C(=O)N[C@@H](CC(C)C)C(=O)N[C@@H](CCCC)C(=O)N[C@@H](CO)C(=O)N[C@@H](CC(C)C)C(=O)N[C@@H](C(C)C)C(=O)N1)C(=O)N[C@@H](C)C(=O)N[C@@H](CC(C)C)C(N)=O` [SP-373] (Ac-LLQGE[R8]LLRALD[S5]VNIDE[R8]VL[Nle]SLV[S5]E[Nle]AL-NH2; staple 6-13, 19-26) are “+++ (≤25 but <50: +++)”, over 30 µM, “++++ (≥30: ++++)” and 200 to 400 nM.
For `CCCC[C@H](NC(=O)[C@H](CCC(=O)O)NC(=O)[C@@H](NC(=O)[C@@H](NC(=O)[C@H](CC(C)C)NC(=O)[C@]1(C)CCCC=CCCC[C@](C)(NC(=O)[C@H](CCC(=O)O)NC(=O)[C@H](CC(=O)O)NC(=O)[C@@H](NC(=O)[C@H](Cc2ccccc2)NC(C)=O)[C@@H](C)CC)C(=O)N[C@@H](C(C)C)C(=O)N[C@@H](CC(C)C)C(=O)N[C@@H](CCCC)C(=O)N1)C(C)C)[C@@H](C)CC)C(=O)N[C@@H](C)C(=O)N[C@@H](CC(C)C)C(N)=O` [SP-111] (Ac-FIDE[S5]VL[Nle][S5]LVIE[Nle]AL-NH2; staple 5-9) the same measures were “++++ (≥50: ++++)”, over 30 µM, “++++ (≥30: ++++)” and 200 to 400 nM.
In the same order, the values of `CC[C@H](C)[C@H](NC(=O)[C@H](CCCNC(=N)N)NC(=O)[C@H](CC(=O)O)NC(=O)[C@H](CC(C)C)NC(=O)[C@H](C)NC(=O)[C@H](CCSC)NC(=O)[C@]1(C)CCCC=CCCC[C@](C)(NC(=O)[C@H](CCSC)NC(=O)[C@H](CC(C)C)NC(=O)[C@@H](NC(=O)[C@H](CCCCN)NC(=O)[C@H](CCC(=O)O)NC(=O)[C@H](CC(=O)O)NC(=O)[C@@H](NC(=O)[C@H](Cc2ccccc2)NC(C)=O)[C@@H](C)CC)C(C)C)C(=O)N[C@@H](CC(C)C)C(=O)N[C@@H](C(C)C)C(=O)N[C@@H]([C@@H](C)CC)C(=O)N1)C(N)=O` [SP-283] (Ac-FIDEKVLM[S5]LVI[S5]MALDRI-NH2; staple 9-13) are “+++ (≤25 but <50: +++)”, over 30 µM, “++++ (≥30: ++++)” and over 700 nM.
Take `CCCC[C@@H]1NC(=O)[C@H](CC(C)C)NC(=O)[C@H](C(C)C)NC(=O)[C@@](C)(NC(=O)[C@H](CCC(=O)O)NC(=O)[C@H](CC(=O)O)NC(=O)[C@@H](NC(=O)[C@H](Cc2ccccc2)NC(C)=O)[C@@H](C)CC)CCCC=CCCCC2(CCCC=CCCC[C@](C)(C(=O)N[C@@H](CCCNC(=N)N)C(=O)N[C@@H](C)C(=O)N[C@@H](CC(C)C)C(N)=O)NC(=O)[C@H]([C@@H](C)CC)NC(=O)[C@H](C(C)C)NC(=O)[C@H](CC(C)C)NC2=O)NC1=O` (some centres unmarked) [SP-213]: in the experiment on HRE-bla ME-180 cells [1], the “18 h Avg % max inhibition at top conc” value is “+ (<10: +)” and the concentration giving a half-maximal response (EC50) is over 30 µM. Moreover, in the experiment on HRE-bla ME-180 cells [2], the “Viability 1% FBS AVG” value was “++++ (≥30: ++++)”. Besides, the IC50 in experiment [3] is over 700 nM.
As to `CCCC[C@H](NC(=O)[C@H](CCC(=O)O)NC(=O)[C@]1(C)CCCC=CCCCCCC[C@@](C)(NC(=O)[C@H](CCC(=O)O)NC(=O)[C@H](C)NC(=O)[C@@H](NC(=O)[C@H](CC(N)=O)NC(=O)[C@@H](NC(=O)[C@]2(C)CCCC=CCCCCCC[C@@](C)(NC(=O)[C@H](CCC(=O)O)NC(=O)CNC(=O)[C@H](CCC(N)=O)NC(=O)[C@H](CC(C)C)NC(=O)[C@H](CC(C)C)NC(C)=O)C(=O)N[C@@H](CC(C)C)C(=O)N[C@@H](CC(C)C)C(=O)N[C@@H](CCCNC(=N)N)C(=O)N[C@@H](C)C(=O)N[C@@H](CC(C)C)C(=O)N[C@@H](CC(=O)O)C(=O)N2)C(C)C)[C@@H](C)CC)C(=O)N[C@@H](C(C)C)C(=O)N[C@@H](CC(C)C)C(=O)N[C@@H](CCCC)C(=O)N[C@@H](CO)C(=O)N[C@@H](CC(C)C)C(=O)N[C@@H](C(C)C)C(=O)N1)C(N)=O` [SP-355] (Ac-LLQGE[R8]LLRALD[S5]VNIAE[R8]VL[Nle]SLV[S5]E[Nle]-NH2; staple 6-13, 19-26), in the experiment with HRE-bla ME-180 cells [1], the “18 h Avg % max inhibition at top conc” value is “++ (≤10 but <25: ++)” and the EC50 is over 30 µM. For the same molecule, in the experiment on HRE-bla ME-180 cells [2], the “Viability 1% FBS AVG” value is recorded as “++++ (≥30: ++++)”. In addition, the IC50 in experiment [3] is at most 200 nM.
In the same order, the values of `CC[C@H](C)[C@H](NC(=O)[C@H](CCCNC(=N)N)NC(=O)[C@H](CC(=O)O)NC(=O)[C@H](CC(C)C)NC(=O)[C@H](C)NC(=O)[C@H](CCSC)NC(=O)[C@]1(C)CCCC=CCCC[C@](C)(NC(=O)[C@H](CCSC)NC(=O)[C@H](CC(C)C)NC(=O)[C@@H](NC(=O)[C@H](C)NC(=O)[C@H](CCC(N)=O)NC(=O)[C@H](CC(N)=O)NC(=O)[C@@H](NC(=O)[C@H](Cc2ccccc2)NC(C)=O)[C@@H](C)CC)C(C)C)C(=O)N[C@@H](CC(C)C)C(=O)N[C@@H](C(C)C)C(=O)N[C@@H]([C@@H](C)CC)C(=O)N1)C(N)=O` [SP-271] (Ac-FINQAVLM[S5]LVI[S5]MALDRI-NH2; staple 9-13) are “+++ (≤25 but <50: +++)”, over 30 µM, “++++ (≥30: ++++)” and over 700 nM.
Take `CCCC[C@H](NC(=O)[C@H](CC(C)C)NC(=O)[C@@H](NC(=O)[C@H](CCC(=O)O)NC(=O)[C@H](CCC(=O)O)NC(=O)[C@H](CC(=O)O)NC(=O)[C@@H](NC(=O)[C@H](CC(N)=O)NC(=O)[C@@H](NC(=O)[C@H](CCC(N)=O)NC(=O)[C@]1(C)CCCC=CCCC[C@](C)(NC(=O)[C@H](CC(C)C)NC(=O)[C@H](CCC(=O)O)NC(=O)[C@H](CCC(=O)O)NC(=O)CNC(=O)[C@H](CCC(N)=O)NC(=O)[C@H](CC(C)C)NC(=O)[C@H](CC(C)C)NC(C)=O)C(=O)N[C@@H](CCCNC(=N)N)C(=O)N[C@@H](C)C(=O)N[C@@H](CC(C)C)C(=O)N1)C(C)C)[C@@H](C)CC)C(C)C)C(=O)N[C@@]1(C)CCCC=CCCC[C@@](C)(C(=O)N[C@@H](CCCC)C(=O)NCC(N)=O)NC(=O)[C@H]([C@@H](C)CC)NC(=O)[C@H](C(C)C)NC(=O)[C@H](CC(C)C)NC1=O` [SP-308] (Ac-LLQGEEL[S5]RAL[S5]QVNIDEEVL[Nle][S5]LVI[S5][Nle]G-NH2; staple 8-12, 23-27): in the experiment on HRE-bla ME-180 cells [1], the “18 h Avg % max inhibition at top conc” value is recorded as “++++ (≥50: ++++)” and the EC50 lay within 15 to 30 µM. The “Viability 1% FBS AVG” value in the experiment on HRE-bla ME-180 cells [2] is listed as “++++ (≥30: ++++)”. Further, in experiment [3], the IC50 is 200 to 400 nM.
